Values quoted from earlier work in article PMC8924334, “Synthesis of [^11C]carbonyl-labeled cyclohexyl (5-(2-acetamidobenzo[d]thiazol-6-yl)-2-methylpyridin-3-yl)carbamate ([^11C-carbonyl]PK68) as a potential PET tracer for receptor-interacting protein 1 kinase” (EJNMMI Radiopharmacy and Chemistry, 2022).
Read-outs that look alike come from different tables or passages of the source.

Columns and labels:
RIPK1 [1] = test system: RIPK1; parameters: method as in Harris et al. 2017; settings: human cells; ref Harris et al. 2017; cited from earlier work
RIPK1 [2] = test system: RIPK1; parameters: method as in Harris et al. 2017, 2019; settings: rodents; ref Harris et al. 2017, 2019; cited from earlier work
RIPK1 [3] = test system: RIPK1; parameters: method as in Degterev et al. 2005; settings: ref Degterev et al. 2005; cited from earlier work
RIPK1 [4] = test system: RIPK1; parameters: method as in Hou et al. 2019; settings: human cell line; ref Hou et al. 2019; cited from earlier work
RIPK1 [5] = test system: RIPK1; parameters: method as in Hou et al. 2019; settings: mouse cell line; ref Hou et al. 2019; cited from earlier work
melanoma (B16F10) = test system: melanoma (B16F10); parameters: method as in Hou et al. 2019; settings: B16F10-bearing mice; ref Hou et al. 2019; cited from earlier work

## CN1C(=O)[C@@H](NC(=O)c2n[nH]c(Cc3ccccc3)n2)COc2ccccc21 [compound 3]
RIPK1 [1]
  IC50: 6.3 nM
RIPK1 [2]
  IC50: > 1000 nM

## CN1C(=O)NC(Cc2c[nH]c3c(Cl)cccc23)C1=O (centres unmarked) [compound 2, 7-Cl-O-Nec-1]
RIPK1 [3]
  EC50: 210 nM

## CC(=O)Nc1nc2ccc(-c3cnc(C)c(NC(=O)OC4CCCCC4)c3)cc2s1 [PK68, cyclohexyl (5-(2-acetamidobenzo[d]thiazol-6-yl)-2-methylpyridin-3-yl)carbamate]
RIPK1 [4]
  IC50: 23 nM
RIPK1 [5]
  IC50: 13 nM
Melanoma (B16F10)
  number of tumor metastases: significant reduction in the number of tumor metastases

## CN1C(=O)C(Cc2c[nH]c3ccccc23)NC1=S (centres unmarked) [compound 1, Necrostatin-1]
RIPK1 [3]
  EC50: 490 nM
Melanoma (B16F10)
  number of tumor metastases: significant reduction in the number of tumor metastases
